Data as given in patent US5229373A, “Use of exogenous gangliosides as a protective factor against toxicity by antitumor drug vincristine” (Fidia S.p.A., priority 1986, dated 1993).
Where two headings read alike, the source gives them in different places.

Tests used:
[1] = tested on: mouse; test: Effect of gangliosides on acute Vincristine toxicity (acute lethality, single i.v. dose); assay type: in vivo; conditions: Vincristine 3.0 mg/kg e.v. alone
Experimental: The mice were subdivided into groups of not more than 8 in standard cages. Food and water were provided ad lib. The animals were housed in rooms under strictly controlled conditions.
1 mg of Vincristine was diluted to obtain the concentration necessary to inject 0.1 ml/10 g. body weight.
A solution of gangliosides was prepared by addition of sterile distilled water in a quantity sufficient to obtain a final concentration of 200 mg/kg in a volume of 0.2 ml. This dose was administrated to mice weighing about 20g.

[2] = Effect of ganglioside treatment on chronic Vincristine toxicity (lethality after sub-chronic pre-treatment or post-treatment); assay type: in vivo, mouse; conditions: mouse, in vivo, iv, Table 4, read-out: Mortality rate, %
Experimental: (§1) Male mice CD-1 (ICR) BR (Charles River, Italy) weighing 25-30 g were used for the whole experiment. The animals were housed in groups of 10 per cage and fed with standard laboratory chow and tap water ad libitum. The animals were housed at constant room temperature (21°±1° C.) and relative humidity (60%) with controlled cycles of light/dark (light from 8.00 a.m. to 8.00 p.m.).
(§2) Vincristine sulphate (Lilly) was dissolved in saline and injected i.v. in a dose volume of 10 ml/kg, whereas the gangliosides were solubilized in a phosphate buffer (0.01M; pH 7.5) containing 0.8% of NaCl and administered i.m. at a dose volume of 5 ml/kg.
(§3) The ganglioside mixture (or vehicle) was administered i.m. daily for 5 consecutive days at different doses (50, 100 and 200 mg/kg) and Vincristine was injected i.v. 5 hours after the last treatment with gangliosides (or vehicle) in doses of 2.4 and 2.6 mg/kg.
(§4) The ganglioside mixture (or vehicle) was administered i.m. in doses of 200 mg/kg 5 hours before i.v. treatment with Vincristine for 5 consecutive days
(§5) The doses of Vincristine were of 2.2, 2.4 and 2.6 mg/kg.
(§6) The mortality rate was estimated by the number of animals that died within the first 14 days of Vincristine treatment.
(§7) The statistical significance between mortality rates was assessed by means of Fisher's exact probability test.
(§8) The results of the tests are reported in Tables 3 and 4 and graphed in FIG. 1. On the basis of the mortality rate curve after administration of Vincristine, doses between 2 and 3 mg/kg were chosen for the investigation with gangliosides. The first experiment compared the effects of ganglioside treatment before and after Vincristine injection.
(§9) In the case of post-treatment, a single administration of gangliosides was given in order to exclude the possibility that the greater efficacy of pre-treatment with gangliosides in reducing Vincristine toxicity, might only be due to the last ganglioside injection.

[3] = tested on: Male mice CD-1 (ICR) BR; test: as above; assay type: in vivo, mouse; conditions: for Mortality rate: Table 3; for Mortality rate, No.: Table 4
Experimental: as §1, §2, §3, §4, §5, §6, §7, §8, §9

[4] = tested on: sarcoma S180; test: Antitumoral effect of Vincristine with and without CRONASSIAL, sarcoma S180; assay type: in vivo, mouse; conditions: S180, host SN; VCR 0,5 mg/kg i.p. days 1-6
Experimental: Male Swiss Schneider mice weighing 27 g. were used for experiments on sarcoma S180.
This tumor has been transplanted into the same strain of mouse in this laboratory for over 10 years. The transplant was carried out by s.c.inoculation of 0.1 ml of a tumoral homogenate obtained by finely mincing viable tumoral tissue, passed repeatedly through a 26 gauge needle into a sterile Petri dish. 0.1 ml of Penicillin (20,000 u/ml) and streptomycin (20,000 u/ml) were added to the solution. 5 mg of Neomycin were also added.
(§10) A standard vial containing 1 mg of Vincristine was used. It was prepared with a suitable volume of diluting solution to give the final concentration required for injection into 0.1 ml/10 g. of body weight.
(§11) A solution of this substance, which is a mixture of four gangliosides, was prepared by adding a volume of sterile distilled water suffi- cient to give a concentration of 200 mg/kg in a volume of 0.2 ml. This dose is administered to mice weighing approximately 20 g.

[5] = tested on: melanoma B16; test: Antitumoral effect of Vincristine with and without CRONASSIAL, melanoma B16; assay type: in vivo, mouse; conditions: B16, host C57B1; VCR 0,5 mg/kg i.p. days 1-4, 7-11
Experimental: Female C57 B1 mice weighing 20 g. were used for experiments on melanoma B16.
This tumor was prepared by inoculation in the same way as that used for sarcoma S180.
as §10, §11

[6] = tested on: leukemia L1210; test: Antitumoral effect of Vincristine with and without CRONASSIAL, leukemia L1210; assay type: in vivo, mouse
Experimental: Male BDF1 mice weighing 30 g. were used for experiments on leukemia L1210.
Spleens were removed from the animals 7 days after inoculation of L1210 cells and were then finely minced with isotonic saline 1:100. 0.1 ml of this spleen and leukemia L1210 cell suspension was then injected s.c. into the flank of each BDF1 mouse.
as §10, §11

[7] = tested on: VCR-induced neuropathy; conditions: electrophysiology, studies in man; cited from earlier work
[8] = tested on: 3T3, neuroblastoma, glioma; conditions: exogenous addition; cited from earlier work
[9] = subchronic vehicle + VCR 2.4 mg/kg i.v.
[10] = subchronic vehicle + VCR 2.6 mg/kg i.v.

Molecule	No. Survivors at 30 days [1]	mortality at 336 h [2, 9] [%]	mortality at 336 h [2, 10] [%]	Mortality rate ([3]; vehicle + VCR 2.4 mg/kg i.v.)	Mortality rate ([3]; vehicle + VCR 2.6 mg/kg i.v.)	Mortality rate, No. [3, 9]	Mortality rate, No. [3, 10]	Mean tumor weight [4]	Mean tumor weight [5]	Mean survival time ([6]; L1210, host BDF1, VCR 1,0 mg/kg i.p. days 1-3)	average survival time ([6]; L1210, Vincristine alone) [days]	type of VCR-induced neuropathy [7]	cell growth and contact inhibition [8]
CC[C@]1(O)C[C@H]2CN(CCc3c([nH]c4ccccc34)[C@@](C(=O)OC)(c3cc4c(cc3OC)N(C=O)[C@H]3[C@@](O)(C(=O)OC)[C@H](OC(C)=O)[C@]5(CC)C=CCN6CC[C@]43[C@@H]65)C2)C1 [Vincristine]	2/8	38	60	7/10	5/10	19/50	30/50	0,64 g	1,46 g	7,8 gg.	7.8	dying-back type	
II^3 NeuAcGgOse4 Cer [GM1]													inhibits cell growth and induces contact inhibition
